In patent publication US11618810B2, “Antiviral articles” (priority 2020, dated 2023):

Assays:
[1] = system: SARS-CoV-2 S and N protein; assay: Western blot of SARS-CoV-2 S and N protein levels; details: SARS-CoV-2, after exposure
Experimental: FIG. 3C is a Western blot analysis of IAV HA and NP protein levels after exposure of IAV to the fabric of Example 3-A and comparative example A. Both the virus that was removed (eluate) from each fabric with PBSTE as well as the virus that remained on each fabric was analyzed and reported in FIG. 3D. Similarly, a Western blot analysis of SARS-CoV-2 S and N protein levels after exposure of virus to the Example 3-A and comparative example A as shown in FIG. 3E. Both the virus that was removed (eluate) from each fabric with PBSTE as well as the virus that remained on each fabric were analyzed and reported in FIG. 3F.
There was no effect on the viral nucleoprotein, which allowed use of the viral nucleoprotein as internal control. A similar altered surface protein to nucleoprotein ratio on the zinc-embedded PA66 fabrics was observed.

IAV NA segment = assay: RT-qPCR of viral RNA (NA segment); details: for viral RNA integrity (RT-qPCR): after treatment
IAV HA and NP protein = assay: Western blot of IAV HA and NP protein levels; details: for stability of virus surface protein HA: IAV, after exposure
[2] = IAV in the presence of zinc chloride

Experimental for IAV (H1N1): To investigate if zinc ions can directly inactivate IAV, influenza virus was incubated with varying concentrations of zinc chloride.

## [Cl-].[Cl-].[Zn+2] [zinc chloride]
IAV (H1N1); 60 min incubation, varying concentrations, stopped with equimolar EDTA
  reduction on the IAV titer: approximately 2 log
[1]
  stability of virus surface protein S: reduced stability
MDCK cells
  cytotoxic effects in tissue culture: cytotoxic
IAV NA segment; IAV after zinc chloride and EDTA neutralization
  viral NA segment levels (RT-qPCR): No effect
IAV NA segment
  viral RNA integrity (RT-qPCR): no significant reduction
IAV HA and NP protein; [2]
  HA levels (western blot): reduced in a concentration-dependent manner
  NP levels (western blot): did not diminish
IAV HA and NP protein
  stability of virus surface protein HA: reduced stability

## O=C(O)CN(CCN(CC(=O)O)CC(=O)O)CC(=O)O [EDTA]
IAV (H1N1); EDTA alone
  effect on viral titer: does not have any cytotoxic effects itself or reduce the viral titer

## [Cu+2] [copper ions]
[1]
  stability of virus surface protein S: aberrant migration
IAV NA segment
  viral RNA integrity (RT-qPCR): no significant reduction
IAV HA and NP protein
  stability of virus surface protein HA: aberrant migration
